Source: PubChem BioAssay (NCI)
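Protocol summary: plate cells (96-well), add compound at 5 concentrations, incubate 48 h, interpolate endpoints linearly. At the GI50, growth is halved. Definition used: TGI = concentration required for complete inhibition of growth.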

Columns and labels:
Test in all cases: inhibition of tumour cell growth, NCI panel, 48 h
MDA-MB-435 = test system: MDA-MB-435
BT-549 breast = test system: BT-549 breast
786-0 renal = test system: 786-0 renal
HCT-116 colon = test system: HCT-116 colon
SK-OV-3 ovarian = test system: SK-OV-3 ovarian
M14 melanoma = test system: M14 melanoma
KM12 colon = test system: KM12 colon
SF-268 CNS = test system: SF-268 CNS
HOP-62 NSCLC = test system: HOP-62 NSCLC
COLO 205 colon = test system: COLO 205 colon
OVCAR-8 ovarian = test system: OVCAR-8 ovarian
IGROV1 ovarian = test system: IGROV1 ovarian
UO-31 renal = test system: UO-31 renal
RPMI-8226 leukemia = test system: RPMI-8226 leukemia
MCF7 breast = test system: MCF7 breast
NCI-H522 lung = test system: NCI-H522 lung
A549 NSCLC = test system: A549 NSCLC
SF-295 CNS = test system: SF-295 CNS
OVCAR-4 ovarian = test system: OVCAR-4 ovarian
U251 CNS = test system: U251 CNS
HCT-15 colon = test system: HCT-15 colon
HT29 colon = test system: HT29 colon
PC-3 prostate = test system: PC-3 prostate
HOP-92 NSCLC = test system: HOP-92 NSCLC
MALME-3M melanoma = test system: MALME-3M melanoma
HS 578T breast = test system: HS 578T breast
OVCAR-3 ovarian = test system: OVCAR-3 ovarian
SNB-75 CNS = test system: SNB-75 CNS
SR leukemia = test system: SR leukemia
ACHN renal = test system: ACHN renal
UACC-257 melanoma = test system: UACC-257 melanoma
CCRF-CEM leukemia = test system: CCRF-CEM leukemia
RXF 393 renal = test system: RXF 393 renal
LOX IMVI melanoma = test system: LOX IMVI melanoma
NCI-H460 lung = test system: NCI-H460 lung
DU-145 prostate = test system: DU-145 prostate
NCI-H23 lung = test system: NCI-H23 lung
SW-620 colon = test system: SW-620 colon
SK-MEL-28 melanoma = test system: SK-MEL-28 melanoma
SK-MEL-5 melanoma = test system: SK-MEL-5 melanoma
TK-10 renal = test system: TK-10 renal
SK-MEL-2 melanoma = test system: SK-MEL-2 melanoma
HCC-2998 colon = test system: HCC-2998 colon
MOLT-4 leukemia = test system: MOLT-4 leukemia
SN12C renal = test system: SN12C renal
NCI/ADR-RES ovarian = test system: NCI/ADR-RES ovarian
OVCAR-5 ovarian = test system: OVCAR-5 ovarian
HL-60(TB) leukemia = test system: HL-60(TB) leukemia
UACC-62 melanoma = test system: UACC-62 melanoma
SF-539 CNS = test system: SF-539 CNS
EKVX NSCLC = test system: EKVX NSCLC
SNB-19 CNS = test system: SNB-19 CNS
K-562 leukemia = test system: K-562 leukemia
T-47D breast = test system: T-47D breast
CAKI-1 renal = test system: CAKI-1 renal
MDA-MB-231 breast = test system: MDA-MB-231 breast
NCI-H226 lung = test system: NCI-H226 lung
A498 renal = test system: A498 renal

S=C(Nc1ccc(Cl)cc1)Nc1ccc(-c2nc3ccccc3o2)cc1
GI50 (MDA-MB-435): 18.5 µM | TGI (MDA-MB-435): 43.9 µM | GI50 (BT-549 breast): 22.2 µM | TGI (BT-549 breast): 60.7 µM | GI50 (786-0 renal): 26.3 µM | TGI (786-0 renal): > 100 µM | GI50 (HCT-116 colon): 13.6 µM | TGI (HCT-116 colon): 26.4 µM | GI50 (SK-OV-3 ovarian): 32.3 µM | TGI (SK-OV-3 ovarian): > 100 µM | GI50 (M14 melanoma): 23.2 µM | TGI (M14 melanoma): 52.9 µM | GI50 (KM12 colon): 15.8 µM | TGI (KM12 colon): 42.9 µM | GI50 (SF-268 CNS): 16.5 µM | TGI (SF-268 CNS): 76.7 µM | GI50 (HOP-62 NSCLC): 26 µM | TGI (HOP-62 NSCLC): 57.4 µM | GI50 (COLO 205 colon): 19.9 µM | TGI (COLO 205 colon): > 100 µM | GI50 (OVCAR-8 ovarian): 21 µM | TGI (OVCAR-8 ovarian): 49.7 µM | GI50 (IGROV1 ovarian): 10.9 µM | TGI (IGROV1 ovarian): 37.4 µM | GI50 (UO-31 renal): 11.6 µM | TGI (UO-31 renal): 26.1 µM | GI50 (RPMI-8226 leukemia): 3.8 µM | TGI (RPMI-8226 leukemia): 23.2 µM | GI50 (MCF7 breast): 17.6 µM | TGI (MCF7 breast): 51.4 µM | GI50 (NCI-H522 lung): 11 µM | TGI (NCI-H522 lung): 26.7 µM | GI50 (A549 NSCLC): 24.3 µM | TGI (A549 NSCLC): 92.6 µM | GI50 (SF-295 CNS): 13.7 µM | TGI (SF-295 CNS): 42.8 µM | GI50 (OVCAR-4 ovarian): 25.1 µM | TGI (OVCAR-4 ovarian): > 100 µM | GI50 (U251 CNS): 14.1 µM | TGI (U251 CNS): 29.7 µM | GI50 (HCT-15 colon): 10.9 µM | TGI (HCT-15 colon): 25.7 µM | GI50 (HT29 colon): 17.4 µM | TGI (HT29 colon): 41.8 µM | GI50 (PC-3 prostate): 15.4 µM | TGI (PC-3 prostate): 51.4 µM | GI50 (HOP-92 NSCLC): 17.2 µM | TGI (HOP-92 NSCLC): 50.4 µM | GI50 (MALME-3M melanoma): 23.8 µM | TGI (MALME-3M melanoma): 59.9 µM | GI50 (HS 578T breast): 21.2 µM | TGI (HS 578T breast): 79.2 µM | GI50 (OVCAR-3 ovarian): 13.6 µM | TGI (OVCAR-3 ovarian): 44.7 µM | GI50 (SNB-75 CNS): 37.7 µM | TGI (SNB-75 CNS): 72.2 µM | GI50 (SR leukemia): 19 µM | TGI (SR leukemia): 52.3 µM | GI50 (ACHN renal): 17.3 µM | TGI (ACHN renal): 35.8 µM | GI50 (UACC-257 melanoma): 21.4 µM | TGI (UACC-257 melanoma): 45.4 µM | GI50 (CCRF-CEM leukemia): 0.062 µM | TGI (CCRF-CEM leukemia): 19.3 µM | GI50 (RXF 393 renal): 10.9 µM | TGI (RXF 393 renal): 30.7 µM | GI50 (LOX IMVI melanoma): 11.7 µM | TGI (LOX IMVI melanoma): 26.3 µM | GI50 (NCI-H460 lung): 17.4 µM | TGI (NCI-H460 lung): 58.3 µM | GI50 (DU-145 prostate): 17 µM | TGI (DU-145 prostate): 38.6 µM | GI50 (NCI-H23 lung): 17.7 µM | TGI (NCI-H23 lung): 41.8 µM | GI50 (SW-620 colon): 19.8 µM | TGI (SW-620 colon): 60.3 µM | GI50 (SK-MEL-28 melanoma): 20.6 µM | TGI (SK-MEL-28 melanoma): 43.2 µM | GI50 (SK-MEL-5 melanoma): 14 µM | TGI (SK-MEL-5 melanoma): 32.2 µM | GI50 (TK-10 renal): 21.2 µM | TGI (TK-10 renal): 74.1 µM | GI50 (SK-MEL-2 melanoma): 24.2 µM | TGI (SK-MEL-2 melanoma): 51.2 µM | GI50 (HCC-2998 colon): 13.8 µM | TGI (HCC-2998 colon): 26.7 µM | GI50 (MOLT-4 leukemia): 18.5 µM | TGI (MOLT-4 leukemia): > 100 µM | GI50 (SN12C renal): 13.7 µM | TGI (SN12C renal): 28.8 µM | GI50 (NCI/ADR-RES ovarian): 21.8 µM | TGI (NCI/ADR-RES ovarian): 58.7 µM | GI50 (OVCAR-5 ovarian): 20.4 µM | TGI (OVCAR-5 ovarian): 52.9 µM | GI50 (HL-60(TB) leukemia): 32.2 µM | TGI (HL-60(TB) leukemia): > 100 µM | GI50 (UACC-62 melanoma): 12.7 µM | TGI (UACC-62 melanoma): 27.7 µM | GI50 (SF-539 CNS): 19.2 µM | TGI (SF-539 CNS): 41.8 µM | GI50 (EKVX NSCLC): 19.4 µM | TGI (EKVX NSCLC): 64 µM | GI50 (SNB-19 CNS): 25.6 µM | TGI (SNB-19 CNS): > 100 µM | GI50 (K-562 leukemia): 22.6 µM | TGI (K-562 leukemia): > 100 µM | GI50 (T-47D breast): 16.8 µM | TGI (T-47D breast): 82.8 µM | GI50 (CAKI-1 renal): 12.3 µM | TGI (CAKI-1 renal): 39.8 µM | GI50 (MDA-MB-231 breast): 10.3 µM | TGI (MDA-MB-231 breast): 35.1 µM

O=C(O)Cc1ccc(Oc2nc3ccccc3nc2C(=O)O)cc1
TGI (NCI-H226 lung): > 100 µM | TGI (MDA-MB-435): > 100 µM | TGI (BT-549 breast): > 100 µM | TGI (786-0 renal): > 100 µM | TGI (HCT-116 colon): > 100 µM | TGI (SK-OV-3 ovarian): > 100 µM | TGI (M14 melanoma): > 100 µM | TGI (KM12 colon): > 100 µM | TGI (SF-268 CNS): > 100 µM | TGI (HOP-62 NSCLC): > 100 µM | TGI (COLO 205 colon): > 100 µM | TGI (OVCAR-8 ovarian): > 100 µM | TGI (IGROV1 ovarian): > 100 µM | TGI (UO-31 renal): > 100 µM | TGI (RPMI-8226 leukemia): > 100 µM | TGI (MCF7 breast): > 100 µM | TGI (NCI-H522 lung): > 100 µM | TGI (A549 NSCLC): > 100 µM | TGI (SF-295 CNS): > 100 µM | TGI (OVCAR-4 ovarian): > 100 µM | TGI (U251 CNS): > 100 µM | TGI (HCT-15 colon): > 100 µM | TGI (HT29 colon): > 100 µM | TGI (PC-3 prostate): > 100 µM | TGI (HOP-92 NSCLC): > 100 µM | TGI (HS 578T breast): > 100 µM | TGI (OVCAR-3 ovarian): > 100 µM | TGI (SNB-75 CNS): > 100 µM | TGI (SR leukemia): > 100 µM | TGI (ACHN renal): > 100 µM | TGI (UACC-257 melanoma): > 100 µM | TGI (CCRF-CEM leukemia): > 100 µM | TGI (LOX IMVI melanoma): > 100 µM | TGI (NCI-H460 lung): > 100 µM | TGI (DU-145 prostate): > 100 µM | TGI (A498 renal): > 100 µM | TGI (NCI-H23 lung): > 100 µM | TGI (SW-620 colon): > 100 µM | TGI (SK-MEL-28 melanoma): > 100 µM | TGI (SK-MEL-5 melanoma): > 100 µM | TGI (TK-10 renal): > 100 µM | TGI (SK-MEL-2 melanoma): > 100 µM | TGI (HCC-2998 colon): > 100 µM | TGI (SN12C renal): > 100 µM | TGI (NCI/ADR-RES ovarian): > 100 µM | TGI (OVCAR-5 ovarian): > 100 µM | TGI (HL-60(TB) leukemia): > 100 µM | TGI (UACC-62 melanoma): > 100 µM | TGI (SF-539 CNS): > 100 µM | TGI (EKVX NSCLC): > 100 µM | TGI (SNB-19 CNS): > 100 µM | TGI (K-562 leukemia): > 100 µM | TGI (T-47D breast): > 100 µM | TGI (CAKI-1 renal): > 100 µM | TGI (MDA-MB-231 breast): > 100 µM
